Experimental data reported in patent US20180042953A1, “ANTIBACTERIAL INJECTABLE PHARMACEUTICAL COMPOSITION” (OBSHCHESTVO S OGRANICHENNOY OTVETSTVENNOSTYU "VIK - …, priority 2012, published 2018).

Test: Azithromycin solubility in organic solvents
Type: physicochemical

Maximum azithromycin conc. (solvent 2-Pyrrolidone): 28.9% | Maximum azithromycin conc. (solvent 3,3-dimethyl-2-pyrrolidone): 26.4% | Maximum azithromycin conc. (solvent Dimethylacetamide): 32.1% | Maximum azithromycin conc. (solvent Dimethylsulfoxide): 26.4% | Maximum azithromycin conc. (solvent N-ethoxy-2-pyrrolidone): 23.3% | Maximum azithromycin conc. (solvent N-ethyl-2-pyrrolidone): 25.8% | Maximum azithromycin conc. (solvent N-methyl-2-pyrrolidone): 31.2% | Maximum azithromycin conc. (solvent N-octyl-2-pyrrolidone): 21.5% | Maximum azithromycin conc. (solvent Propylene glycol): 13.4% | Maximum azithromycin conc. (solvent Transcutol): 10.2%
Compound: CC[C@H]1OC(=O)[C@H](C)[C@@H](O[C@H]2C[C@@](C)(OC)[C@@H](O)[C@H](C)O2)[C@H](C)[C@@H](O[C@@H]2O[C@H](C)C[C@H](N(C)C)[C@H]2O)[C@](C)(O)C[C@@H](C)CN(C)[C@H](C)[C@@H](O)[C@]1(C)O [Azithromycin, (2R,3S,4R,5R,8R,10R,11R,12S,13S,14R)-13-[(2,6-dioxy-3-C-methyl-3-O-methyl-a-L-ribohexopyranozyl)oxy]-2-ethyl-3,4, 10-trihydroxy-3,5,6,8,10,12,14-heptamethyl-11-[[3,4,6-trideoxy-3-(dimethylamino)-b-D-xylo-hexapyranozyl]oxy]-1-ox-6-azacyclopentadecane-15-one]
